The results in this text go back to US20170050957A1, “4-AMINO-6-(HETEROCYCLIC)PICOLINATES AND 6-AMINO-2-(HETEROCYCLIC)PYRIMIDINE-4-CARBOXYLATES AND THEIR USE AS HERBICIDES” (Dow AgroSciences LLC, priority 2013, published 2017).

For orientation: melting point means the temperature of the solid-liquid transition.

The test system of series [1] is Key Grass and Sedge Weeds as well as Grass Crops. Briefly: Post-emergent Test II herbicidal activity (Table 16). The series is classed as in vivo. The conditions noted are these: for pest or weed control at 35 g/ha / pest or weed control at 70 g/ha / pest or weed control at 140 g/ha: post-emergence, 336 h, 14 days after application; for Visual Growth Reduction (%) 14 Days After Application, ECHCG / Visual Growth Reduction (%) 14 Days After Application, SETFA / Visual Growth Reduction (%) 14 Days After Application, ZEAMX / Visual Growth Reduction (%) 14 Days After Application, ORYSA / Visual Growth Reduction (%) 14 Days After Application, TRZAS / Visual Growth Reduction (%) 14 Days After Application, CYPES: 14 d. How it is done: (§1) Post-emergent Test II: Seeds or nutlets of the desired test plant species were planted in Sun Gro Metro-Mix® 360 planting mixture, which typically has a pH of 6.0 to 6.8 and an organic matter content of about 30 percent, in plastic pots with a surface area of 64 square centimeters. When required to ensure good germination and healthy plants, a fungicide treatment and/or other chemical or physical treatment was applied. The plants were grown for 7-21 d in a greenhouse with an approximate 15 h photoperiod which was maintained at about 23-29° C. during the day and 22-28° C. during the night. Nutrients and water were added on a regular basis and supplemental lighting was provided with overhead metal halide 1000-Watt lamps as necessary. The plants were employed for testing when they reached the first or second true leaf stage.
(§2) A weighed amount, determined by the highest rate to be tested, of each test compound was placed in a 25 mL glass vial and was dissolved in 4 mL of a 97:3 v/v mixture of acetone and DMSO to obtain concentrated stock solutions. […] The concentrated stock solutions obtained were diluted with 20 mL of an aqueous mixture containing acetone, water, isopropyl alcohol, DMSO, Atplus 411F crop oil concentrate, and Triton® X-155 surfactant in a 48.5:39:10:1.5:1.0:0.02 v/v ratio to obtain spray solutions containing the highest application rates. Additional application rates were obtained by serial dilution of 12 mL of the high rate solution into a solution containing 2 mL of 97:3 v/v mixture of acetone and DMSO and 10 mL of an aqueous mixture containing acetone, water, isopropyl alcohol, DMSO, Atplus 411F crop oil concentrate, and Triton X-155 surfactant in a 48.5:39:10:1.5:1.0:0.02 v/v ratio to obtain 1/2×, 1/4×, 1/8× and 1/16× rates of the high rate. Compound requirements are based upon a 12 mL application volume at a rate of 187 liters per hectare (L/ha). Formulated compounds were applied to the plant material with an overhead Mandel track sprayer equipped with 8002E nozzles calibrated to deliver 187 L/ha over an application area of 0.503 square meters at a spray height of 18 inches (43 cm) above the average plant canopy height. Control plants were sprayed in the same manner with the solvent blank.
(§3) The treated plants and control plants were placed in a greenhouse as described above and watered by subirrigation to prevent wash-off of the test compounds. After 14 d, the condition of the test plants as compared with that of the untreated plants was determined visually and scored on a scale of 0 to 100 percent where 0 corresponds to no injury and 100 corresponds to complete kill.

In series [2] the test system is Key Broadleaf Weed and Crop Species. As to the kind of experiment: Post-emergent Test II herbicidal activity (Table 15). The series is classed as in vivo. The conditions noted are these: post-emergence, 336 h, 14 d; for pest or weed control at 35 g/ha: 35 g ai/ha. How it is done:
as §1, §2, §3

Where two headings read alike, the source gives them in different places.

Consider `Cn1ccc2ccc(-c3nc(C(=O)O)c(Cl)c(N)c3F)cc21` [Compound 1.11], for which the melting point fell in the range of 173 to 176 °C.
`C=Cc1c(C(=O)OC)nc(-c2ccc3cc[nH]c3c2F)c(F)c1N` [Compound 1.18, Methyl 4-amino-5-fluoro-6-(7-fluoro-1H-indol-6-yl)-3-vinylpicolinate] had a melting point of 164 to 166 °C.
Same read-out and setting: with `C=Cc1c(N)nc(-c2ccc3cc[nH]c3c2F)nc1C(=O)OC` [Compound 1.38] the figure was 181 to 182 °C.
Consider `COC(=O)c1nc(-c2cccc3c2ccn3C)c(F)c(N)c1Cl` [Compound 1.41], for which the melting point lay in the range of 167 to 169 °C.
`Cn1ccc2c(-c3nc(C(=O)O)c(Cl)c(N)c3F)cccc21` [Compound 1.42] had a melting point of 158 to 160 °C.
As to `COC(=O)c1nc(-c2ccc(Cl)c3cc[nH]c23)nc(N)c1OC` [Compound 1.50], the melting point was 147 to 149 °C.
Same read-out and setting: in the case of `COC(=O)c1nc(-c2ccc3occc3c2)c(F)c(N)c1Cl` [Compound 2.01] it was 114 to 117 °C; in that of `Nc1c(F)c(-c2ccc3sccc3c2)nc(C(=O)O)c1Cl` [Compound 3.04], 149 to 150 °C; in that of `COC(=O)c1nc(-c2cccc3c(Br)csc23)c(F)c(N)c1Cl` [Compound 3.26, Methyl 4-amino-6-(3-bromobenzo[b]thiophen-7-yl)-3-chloro-5-fluoropicolinate], 181 to 184 °C.
On the same count and under the same terms, with `Nc1c(F)c(-c2ccc3[nH]ncc3c2)nc(C(=O)O)c1Cl` [Compound 4.02] the figure was 284 to 287 °C.
Take `COC(=O)c1nc(-c2ccc3c(N(C)C)noc3c2)c(F)c(N)c1Cl` [Compound 8.01]: the pest or weed control at 35 g/ha was 0 to 29% in series [1] (Cyperus esculentus, yellow nutsedge (Cyperus esculentus), 35 g ai/ha, read-out: Visual Growth Reduction (%) 14 Days After Application CYPES); 0 to 29% in series [1] (Echinochloa crus-galli, barnyardgrass (Echinochloa crus-galli), 35 g ai/ha, read-out: Visual Growth Reduction (%) 14 Days After Application ECHCG); 0 to 29% in series [1] (Oryza sativa, rice (Oryza sativa), 35 g ai/ha, read-out: Visual Growth Reduction (%) 14 Days After Application ORYSA); 0 to 29% in series [1] (Setaria faberi, giant foxtail (Setaria faberi), 35 g ai/ha, read-out: Visual Growth Reduction (%) 14 Days After Application SETFA); 0 to 29% in series [1] (Triticum aestivum, wheat, spring (Triticum aestivum), 35 g ai/ha, read-out: Visual Growth Reduction (%) 14 Days After Application TRZAS); 0 to 29% in series [1] (Zea mays, maize, corn (Zea mays), 35 g ai/ha, read-out: Visual Growth Reduction (%) 14 Days After Application ZEAMX). The pest or weed control at 35 g/ha in series [2] (Abutilon theophrasti, velvetleaf (Abutilon theophrasti), read-out: Visual Growth Reduction (%) 14 Days After Application, ABUTH) lay in the range of 0 to 29%; in series [2] (Amaranthus retroflexus, redroot pigweed (Amaranthus retroflexus), read-out: Visual Growth Reduction (%) 14 Days After Application, AMARE) it was 0 to 29%; in series [2] (Brassica napus, oilseed rape, canola (Brassica napus), read-out: Visual Growth Reduction (%) 14 Days After Application, BRSNN), 0 to 29%; in series [2] (Chenopodium album, lambsquarters (Chenopodium album), read-out: Visual Growth Reduction (%) 14 Days After Application, CHEAL), 0 to 29%; in series [2] (Euphorbia heterophylla, wild poinsettia (Euphorbia heterophylla), read-out: Visual Growth Reduction (%) 14 Days After Application, EPHHL), 0 to 29%; in series [2] (Helianthus annuus, sunflower (Helianthus annuus), read-out: Visual Growth Reduction (%) 14 Days After Application, HELAN) it was 0 to 29%. In addition, the pest or weed control at 70 g/ha in series [1] (Cyperus esculentus, yellow nutsedge (Cyperus esculentus), 70 g ai/ha, read-out: Visual Growth Reduction (%) 14 Days After Application CYPES) fell in the range of 0 to 29%; in series [1] (Echinochloa crus-galli, barnyardgrass (Echinochloa crus-galli), 70 g ai/ha, read-out: Visual Growth Reduction (%) 14 Days After Application ECHCG), 0 to 29%; in series [1] (Oryza sativa, rice (Oryza sativa), 70 g ai/ha, read-out: Visual Growth Reduction (%) 14 Days After Application ORYSA), 0 to 29%; in series [1] (Setaria faberi, giant foxtail (Setaria faberi), 70 g ai/ha, read-out: Visual Growth Reduction (%) 14 Days After Application SETFA), 0 to 29%; in series [1] (Triticum aestivum, wheat, spring (Triticum aestivum), 70 g ai/ha, read-out: Visual Growth Reduction (%) 14 Days After Application TRZAS) it was 0 to 29%; in series [1] (Zea mays, maize, corn (Zea mays), 70 g ai/ha, read-out: Visual Growth Reduction (%) 14 Days After Application ZEAMX), 0 to 29%. Also, the pest or weed control at 70 g/ha in series [2] (Brassica napus, oilseed rape, canola (Brassica napus), 70 g ai/ha, read-out: Visual Growth Reduction (%) 14 Days After Application, BRSNN) was in the range of 0 to 29%. Also, the pest or weed control at 140 g/ha in series [1] (Cyperus esculentus, yellow nutsedge (Cyperus esculentus), 140 g ai/ha, read-out: Visual Growth Reduction (%) 14 Days After Application CYPES) fell in the range of 0 to 29%; in series [1] (Echinochloa crus-galli, barnyardgrass (Echinochloa crus-galli), 140 g ai/ha, read-out: Visual Growth Reduction (%) 14 Days After Application ECHCG) it was 0 to 29%; in series [1] (Oryza sativa, rice (Oryza sativa), 140 g ai/ha, read-out: Visual Growth Reduction (%) 14 Days After Application ORYSA), 0 to 29%; in series [1] (Setaria faberi, giant foxtail (Setaria faberi), 140 g ai/ha, read-out: Visual Growth Reduction (%) 14 Days After Application SETFA), 0 to 29%; in series [1] (Triticum aestivum, wheat, spring (Triticum aestivum), 140 g ai/ha, read-out: Visual Growth Reduction (%) 14 Days After Application TRZAS), 0 to 29%; in series [1] (Zea mays, maize, corn (Zea mays), 140 g ai/ha, read-out: Visual Growth Reduction (%) 14 Days After Application ZEAMX), 0 to 29%. Further, the pest or weed control at 140 g/ha in series [2] (Brassica napus, oilseed rape, canola (Brassica napus), 140 g ai/ha, read-out: Visual Growth Reduction (%) 14 Days After Application, BRSNN) lay within 0 to 29%.
Regarding `Nc1c(Cl)c(C(=O)O)nc(-c2ccc3cc[nH]c3c2)c1Cl` [Compound 106], the “Visual Growth Reduction (%) 14 Days After Application, ECHCG” value in series [1] (barnyardgrass (Echinochloa crus-galli), 35 g ai/ha) is listed as “G (0-29)”; in series [1] (barnyardgrass (Echinochloa crus-galli), 70 g ai/ha), “D (60-74)”; in series [1] (barnyardgrass (Echinochloa crus-galli), 140 g ai/ha), “C (75-84)”. The “Visual Growth Reduction (%) 14 Days After Application, SETFA” value is given as “G (0-29)” in series [1] (giant foxtail (Setaria faberi), 35 g ai/ha); “G (0-29)” in series [1] (giant foxtail (Setaria faberi), 70 g ai/ha); “G (0-29)” in series [1] (giant foxtail (Setaria faberi), 140 g ai/ha). Moreover, the “Visual Growth Reduction (%) 14 Days After Application, ZEAMX” value in series [1] (maize, corn (Zea mays), 35 g ai/ha) is reported as “G (0-29)”; in series [1] (maize, corn (Zea mays), 70 g ai/ha), “G (0-29)”; in series [1] (maize, corn (Zea mays), 140 g ai/ha) it was “G (0-29)”. The “Visual Growth Reduction (%) 14 Days After Application, ORYSA” value is recorded as “G (0-29)” in series [1] (rice (Oryza sativa), 35 g ai/ha); “G (0-29)” in series [1] (rice (Oryza sativa), 70 g ai/ha); “G (0-29)” in series [1] (rice (Oryza sativa), 140 g ai/ha). Moreover, the “Visual Growth Reduction (%) 14 Days After Application, TRZAS” value in series [1] (wheat, spring (Triticum aestivum), 35 g ai/ha) is given as “G (0-29)”; in series [1] (wheat, spring (Triticum aestivum), 70 g ai/ha), “G (0-29)”; in series [1] (wheat, spring (Triticum aestivum), 140 g ai/ha), “G (0-29)”. The “Visual Growth Reduction (%) 14 Days After Application, CYPES” value in series [1] (yellow nutsedge (Cyperus esculentus), 35 g ai/ha) is listed as “G (0-29)”; in series [1] (yellow nutsedge (Cyperus esculentus), 70 g ai/ha) it was “G (0-29)”; in series [1] (yellow nutsedge (Cyperus esculentus), 140 g ai/ha), “G (0-29)”.
